Results: patent publication US6399827B1, “Quaternary ammonium phosphate compound and method of preparing same” (SK Chemicals, priority 1997, dated 2002)

Key:
Assay type in all cases: cell-based
[1] = system: Bacteria; test: Biocidal effect test (MIC), bacteria; conditions: serial dilution, 10^4 cfu/ml, 48 hours at 30° C., nutrient broth, turbidity read visually, range over 8 bacterial strains; for MIC: read-out: Minimal Inhibition Concentration (ppm) Bacteria
Procedure: (§1) This test was carried out for the purpose of measuring a biocidal effect of the compounds obtained from examples 1, 3 and 4. A test material was diluted using a serial dilution method in a 96-multiwelled plate. 10^4 cfu/ml of microbes were inoculated in the diluted solution. After the microbes were cultivated for 48 hours at 30° C., MIC (Minimal Inhibition Concentration of microorganisms) was visually observed to decide whether or not microbial growth occurred from the turbidity. The growth medium was nutrient broth, DIFCO, and the strains used were as follows.
Enterobacter aerogenes ATCC 13048, Escherichia coli ATCC 11229, Micrococcus luteus ATCC 9431, Pseudomonas aeruginosa ATCC 15442, Shigella sonnei ATCC 9290, Staphylococcus epidermis ATCC 155, Staphylococcus aureus ATCC 6538 and Bacillus subtilis ATCC 6984.

[2] = system: Yeasts; test: Biocidal effect test (MIC), yeasts; conditions: serial dilution, 10^4 cfu/ml, 48 hours at 30° C., nutrient broth, turbidity read visually, range over 4 yeast strains; for MIC: Saccharomyces cerevisiae, read-out: Minimal Inhibition Concentration (ppm) yeasts
Procedure: as §1
Candida albicans ATCC 10231, Rhodotorula rubra ATCC 9449, Cryptococcus neoformans ATCC 34144 and Saccharomyces cerevisiae ATCC 9763.

[3] = system: Fungi; test: Biocidal effect test (MIC), fungi; conditions: serial dilution, 10^4 cfu/ml, 48 hours at 30° C., nutrient broth, turbidity read visually, range over 4 fungal strains; for MIC: read-out: Minimal Inhibition Concentration (ppm) fungi
Procedure: as §1
Penicillium citrinum ATCC 98404, Trichoderma viridae ATCC 1287, Rhizopus oryzae ATCC 10404 and Aspergillus niger ATCC 9642.

| SMILES | Minimal Inhibition Concentration (ppm) Bacteria [1] | Minimal Inhibition Concentration (ppm) yeasts [2] | Minimal Inhibition Concentration (ppm) fungi [3] | MIC [1] [µg/mL] | MIC [2] [µg/mL] | MIC [3] [µg/mL] |
| --- | --- | --- | --- | --- | --- | --- |
| CC(C)(C)CC(C)(C)c1ccc(OCCOCC[N+](C)(C)Cc2ccccc2)cc1.O=P([O-])(O)O [example 1, N-dimethyl-N-[p-(α,α,γ,γ)-tetramethylbutylphenoxy]ethoxy ethyl-N-benzyl ammonium phosphate] | 6.3˜12.5 ppm | 6.3˜12.5 ppm | 25˜100 ppm |  |  |  |
| CCCCCCCCCCCCCC[N+]1(Cc2ccccc2)CCOCC1.Cl.N.[Cl-] [B, 4-benzyl-4-tetradecyl morpholinium ammonium chloride] |  |  |  | 6.3 to 12.5 | 6.3 to 25 | 25 to 100 |
| CC(C)(C)CC(C)(C)c1ccc(OCCOCC[N+](C)(C)Cc2ccccc2)cc1.[Cl-] [A, N-dimethyl-N-[p-(α,α,γ,γ)-tetramethylbutylphenoxy]ethoxy ethyl-N-benzyl chloride] | 12.5˜25 ppm | 12.5˜25 ppm | 25˜100 ppm |  |  |  |
| CCCCCCCCCCCCCC[N+]1(Cc2ccccc2)CCOCC1.N.O=P([O-])(O)O [example 4, 4-benzyl-4-tetradecyl morpholinium ammonium phosphate] |  |  |  | 6.3 to 12.5 | 12.5 to 25 | 25 to 100 |
